Experimental data taken from the supplement of paper PMC10307832.

Tests used:
Experiment in all cases: relative viability (nuclei count vs DMSO), 5 days (fraction); higher = more cells survive
Ruxolitinib + Trametinib = compound: N#CC[C@H](C1CCCC1)n1cc(-c2ncnc3[nH]ccc23)cn1 [Ruxolitinib] + CC(=O)Nc1cccc(-n2c(=O)n(C3CC3)c(=O)c3c(Nc4ccc(I)cc4F)n(C)c(=O)c(C)c32)c1 [Trametinib] (partner 0.02 µM)
In short: (§1)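 Lung cancer cell lines in 1536-well plates were dosed by pin tool the day after seeding, either with one drug alone or with a fixed anchor-drug dose plus five library-drug doses (not always all listed) in √10 steps. After 5 days, cells were fixed and their nuclei stained in one step (final 0.05% Triton X-100, 1% formaldehyde, 1 ug/ml Hoechst), then counted on 4× images. Relative viability is the nuclei count in treated wells divided by that in vehicle wells. Values are medians of duplicate plates.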

VE-821 + Olaparib = compound: CS(=O)(=O)c1ccc(-c2cnc(N)c(C(=O)Nc3ccccc3)n2)cc1 [VE-821] + O=C(c1cc(Cc2n[nH]c(=O)c3ccccc23)ccc1F)N1CCN(C(=O)C2CC2)CC1 [Olaparib] (partner 8 µM)
In short: as §1

Vismodegib + Pictilisib = compound: CS(=O)(=O)c1ccc(C(=O)Nc2ccc(Cl)c(-c3ccccn3)c2)c(Cl)c1 [Vismodegib] + CS(=O)(=O)N1CCN(Cc2cc3nc(-c4cccc5[nH]ncc45)nc(N4CCOCC4)c3s2)CC1 [Pictilisib] (partner 1 µM)
In short: as §1

Vismodegib + Pemetrexed = compound: CS(=O)(=O)c1ccc(C(=O)Nc2ccc(Cl)c(-c3ccccn3)c2)c(Cl)c1 [Vismodegib] + Nc1nc2[nH]cc(CCc3ccc(C(=O)N[C@@H](CCC(=O)O)C(=O)O)cc3)c2c(=O)[nH]1 [Pemetrexed] (partner 0.2 µM)
In short: as §1

Cell Line | relative viability (Ruxolitinib + Trametinib; first compound 0.08 µM) | relative viability (Ruxolitinib + Trametinib; first compound 0.253 µM) | relative viability (Ruxolitinib + Trametinib; first compound 0.8 µM) | relative viability (Ruxolitinib + Trametinib; first compound 2.53 µM) | relative viability (Ruxolitinib + Trametinib; first compound 8 µM) | relative viability (VE-821 + Olaparib; first compound 0.08 µM) | relative viability (VE-821 + Olaparib; first compound 0.253 µM) | relative viability (VE-821 + Olaparib; first compound 0.8 µM) | relative viability (VE-821 + Olaparib; first compound 2.53 µM) | relative viability (VE-821 + Olaparib; first compound 8 µM) | relative viability (Vismodegib + Pictilisib; first compound 0.08 µM) | relative viability (Vismodegib + Pictilisib; first compound 0.253 µM) | relative viability (Vismodegib + Pictilisib; first compound 0.8 µM) | relative viability (Vismodegib + Pictilisib; first compound 2.53 µM) | relative viability (Vismodegib + Pictilisib; first compound 8 µM) | relative viability (Vismodegib + Pemetrexed; first compound 0.08 µM) | relative viability (Vismodegib + Pemetrexed; first compound 0.253 µM) | relative viability (Vismodegib + Pemetrexed; first compound 0.8 µM) | relative viability (Vismodegib + Pemetrexed; first compound 2.53 µM) | relative viability (Vismodegib + Pemetrexed; first compound 8 µM)
BEN | 1.01 | 1.01 | 1.13 | 0.99 | 1.35 | 1.17 | 1.01 | 0.902 | 0.768 | 1.08 | 0.614 | 0.602 | 0.537 | 0.541 | 0.583 | 0.679 | 0.682 | 0.784 | 0.754 | 0.737
HARA | 0.639 | 0.622 | 1.07 | 0.269 | 0.775 | 0.695 | 0.798 | 0.583 | 0.387 | 0.391 | 0.472 | 0.423 | 0.417 | 0.396 | 0.448 | 0.243 | – | 0.303 | 0.263 | 0.242
PC-14 | – | 0.829 | 1.17 | 0.45 | 0.625 | 0.292 | 0.282 | 0.167 | 0.137 | 0.097 | 0.492 | 0.576 | 0.792 | 0.541 | 0.821 | 0.148 | 0.135 | 0.133 | 0.144 | 0.136
SW 1573 | 0.533 | 0.545 | 0.616 | 0.486 | 0.574 | 0.533 | 0.516 | 0.418 | 0.269 | 0.21 | 0.417 | 0.509 | 0.59 | 0.502 | 0.51 | 0.79 | 0.894 | 0.764 | 0.855 | 0.865
NCI-H1355 | 0.372 | 0.372 | 0.395 | 0.347 | 0.386 | 0.822 | 0.719 | 0.66 | 0.716 | 0.351 | 0.391 | 0.508 | 0.31 | 0.432 | 0.448 | 0.985 | 1.06 | 0.959 | 1.02 | 1.01
NCI-H460 | 0.195 | 0.161 | 0.151 | 0.0402 | 0.134 | 0.52 | 0.378 | 0.231 | 0.138 | 0.118 | 0.3 | 0.385 | 0.286 | 0.318 | 0.313 | 0.0652 | 0.0637 | 0.0589 | 0.0651 | 0.0689
NCI-H2126 | 0.559 | 0.543 | 0.607 | 0.58 | 0.664 | 1.01 | 0.907 | 0.969 | 0.927 | 0.682 | 0.519 | 0.521 | 0.446 | 0.493 | 0.484 | 0.717 | 0.664 | 0.661 | 0.623 | 0.681
LCLC-103H | 0.728 | 0.707 | 0.731 | 0.595 | 0.639 | 0.769 | 0.76 | 0.71 | 0.76 | 0.663 | 0.606 | 0.533 | 0.574 | 0.633 | 0.646 | 0.431 | 0.552 | 0.474 | 0.473 | 0.481
